Test results from patent publication US11426420B2, “Inhibitors of short-chain dehydrogenase activity for treating coronary disorders” (CASE WESTERN RESERVE UNIVERSITY, priority 2017, dated 2022).

What was measured:
[1] = test system: doxorubicin induced cardiomyopathy; assay: doxorubicin induced cardiomyopathy in mice, 2 consecutive cycles of doxorubicin (Set B); format: in vivo
[2] = test system: doxorubicin induced cardiomyopathy; assay: doxorubicin induced cardiomyopathy in mice, one cycle (Set A), echocardiography; format: in vivo, male C57bl6J mice
Protocol: FIG. 1 illustrates schematically the design of a study in which male C57bl6J mice received 15 mpk cumulative dose of doxorubicin in 7 doses of 2.15 mpk administered daily over study days 1-7. A 15-PGDH inhibitor, (+) SW033291, was administered by oral gavage at a dose of 25 mpk twice daily over study days 1-14, as a solution in a vehicle of 10% ethanol and 90% soybean oil. Cardiac ejection fraction was determined by echocardiography on study days 14 and 28.
FIG. 2 illustrates a graph showing cardiac ejection fraction at study day 1, at the start of the experiment, at study day 14 and at study day 28. Black bars show measurement in control mice receiving either oral saline or oral vehicle. Blue bars show results in doxorubicin treated mice receiving oral vehicle. Red bars show results in doxorubicin treated mice also receiving (+) SW033291. Doxorubicin treated mice receiving oral vehicle (blue bars) show a 10% decrease in ejection fraction on day 14 and day 28 as compared to non-doxorubicin treated control mice receiving vehicle only for 14 days. In contrast, mice treated with both doxorubicin and (+) SW033291 only a 2% (day 14) or 1.5% (day 28) decrease in ejection fraction. The difference in ejection fraction in doxorubicin treated mice receiving or not receiving (+) SW033291 was statiscally significant (P<0.05) on both days 14 and 28.

cardiac 15-PGDH = molecular target: T1, cardiac 15-PGDH (Mus musculus, UniProt Q8VCC1); assay: cardiac 15-PGDH activity and cardiac PGE2 after oral dosing of mice; format: in vivo
T1 construct: from tissue; host or cells: mouse heart (male C57bl6J mice are named for the study design)
T1 sequence (Q8VCC1 1-269): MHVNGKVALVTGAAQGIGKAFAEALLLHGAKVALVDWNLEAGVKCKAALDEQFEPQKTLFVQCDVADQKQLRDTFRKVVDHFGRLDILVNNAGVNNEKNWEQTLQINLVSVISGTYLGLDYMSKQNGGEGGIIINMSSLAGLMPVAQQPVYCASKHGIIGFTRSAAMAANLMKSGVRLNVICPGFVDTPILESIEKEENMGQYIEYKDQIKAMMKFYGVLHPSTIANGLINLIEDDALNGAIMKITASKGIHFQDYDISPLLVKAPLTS

cardiac myocytes = assay: DNA damage in cardiac myocytes, gamma-H2AX immunostaining; format: in vivo; conditions: doxorubicin treated mice
[3] = test system: PGE2 production by cell lines; assay: PGE2 production by cell lines; format: cell-based
[4] = chemical stability in aqueous solutions; format: physicochemical; conditions: over broad pH range
[5] = stability on incubation with hepatocyte cell lines; format: in vitro ADME
[6] = stability on incubation with hepatocyte extracts; format: in vitro ADME
mice = assay: toxicity after IP injection into mice
[7] = stability on incubation with mouse liver extracts; format: in vitro ADME
[8] = stability on incubation with human liver extracts; format: in vitro ADME
[9] = stability on incubation with rat liver extracts; format: in vitro ADME
recombinant 15-PGDH = molecular target: T2, recombinant 15-PGDH (Homo sapiens, UniProt P15428); assay: inhibition of recombinant 15-PGDH; format: biochemical
T2 sequence (P15428 1-266): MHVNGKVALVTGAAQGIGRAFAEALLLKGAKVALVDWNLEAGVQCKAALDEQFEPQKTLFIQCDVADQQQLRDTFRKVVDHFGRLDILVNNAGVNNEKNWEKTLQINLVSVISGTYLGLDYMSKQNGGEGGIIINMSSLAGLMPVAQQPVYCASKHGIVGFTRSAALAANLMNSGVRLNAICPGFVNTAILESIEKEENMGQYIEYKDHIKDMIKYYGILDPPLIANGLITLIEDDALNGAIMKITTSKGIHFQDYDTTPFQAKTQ

[10] = day 42, after two cycles of doxorubicin, versus vehicle control

CCCC[S+]([O-])c1sc2nc(-c3cccs3)cc(-c3ccccc3)c2c1N (single isomer, unassigned; (+)) [(+) SW033291]
ejection fraction ([1]; day 14, following the first cycle of doxorubicin): improvement of ejection fraction
atrial natriuretic factor, real-time PCR in cardiac tissue [1, 10]: lower levels of atrial natriuretic factor
expression of connective tissue growth factor, real-time PCR in cardiac tissue [1, 10]: lower levels of expression of connective tissue growth factor
lung weight [1, 10]: lesser lung weight
ventricular weight [1, 10]: lesser ventricular weight
total body weight ([1]; day 42, after two cycles of doxorubicin, versus vehicle treated mice): greater total body weight
ejection fraction ([1]; day 42, following the second cycle of doxorubicin): improvement of ejection fraction
ejection fraction (EF %), extended follow-up ([2]; Set A, follow-up to day 56): maintenance of improvement in ejection fraction
decrease in ejection fraction ([2]; day 14, doxorubicin treated mice, 25 mpk oral gavage twice daily days 1-14): 2%
decrease in ejection fraction ([2]; day 28, doxorubicin treated mice, 25 mpk oral gavage twice daily days 1-14): 1.5%
prevention of doxorubicin induced cardiomyopathy ([2]; mice): prevented doxorubicin induced cardiomyopathy
cardiac contractility, echocardiogram ([2]; study day 14, doxorubicin treated mice, versus oral vehicle): markedly greater cardiac contractility
inhibition of activity of cardiac 15-PGDH (cardiac 15-PGDH; 25 mpk oral, starting at 30 minutes, persisting for 3 hours after administration): approximately 80%
cardiac PGE2 (cardiac 15-PGDH; 6 hours after drug treatment): increased cardiac PGE2

COc1cccc2c1C(=O)c1c(O)c3c(c(O)c1C2=O)C[C@@](O)(C(=O)CO)C[C@@H]3O[C@H]1C[C@H](N)[C@H](O)[C@H](C)O1 [doxorubicin, reference compound]
decrease in ejection fraction ([2]; day 14, doxorubicin 15 mpk cumulative plus oral vehicle, compared to non-doxorubicin treated control mice): 10%
decrease in ejection fraction ([2]; day 28, doxorubicin 15 mpk cumulative plus oral vehicle, compared to non-doxorubicin treated control mice): 10%
DNA damage in cardiac myocytes, gamma-H2AX immunostaining (cardiac myocytes): induction of DNA damage

CCCC[S+]([O-])c1sc2nc(-c3cccs3)cc(-c3ccccc3)c2c1N (stereo not shown) [formula (IX)]
PGE2 production by cell lines [3]: increase PGE2 production
chemical stability in aqueous solutions [4]: chemically stable
chemical stability when incubated with hepatocyte cell lines [5]: chemically stable
chemical stability when incubated with hepatocyte extracts [6]: chemically stable
toxicity (mice; IP into mice at 0.3 μmole/per mouse twice daily for 21 days): no toxicity
immediate toxicity over 24 hours (mice; IP into mice at 0.6 μmole/per mouse): no immediate toxicity
immediate toxicity over 24 hours (mice; IP into mice at 1.2 μmole/per mouse): no immediate toxicity

CCCC[S+]([O-])c1sc2nc(-c3nccs3)cc(-c3cnc(C)n3C)c2c1N (stereo not shown) [formula (X)]
concentration at which PGE2 production by cell lines is increased [3]: 20 nM
chemical stability when incubated with liver extracts [7]: chemically stable
chemical stability when incubated with liver extracts [8]: chemically stable
chemical stability when incubated with liver extracts [9]: chemically stable
chemical stability in aqueous solutions [4]: chemically stable
concentration at which recombinant 15-PGDH is inhibited (recombinant 15-PGDH): 3 nM
immediate toxicity over 24 hours (mice; IP into mice at 50 mg/kg body weight): no immediate toxicity
